Entries after “also recorded” stand apart in the source; their conditions may differ. Blank lines part the entries; values can stand above or below the compound they belong to.
What was measured:
mouse liver = settings: cited from earlier work
DAGL-α [1] = target: T1, DAGL-α (Homo sapiens, UniProt Q9Y4D2); type: biochemical; settings: pre-incubated at IC80 concentration; MB064 labeling; n=3
T1 sequence (Q9Y4D2 1-1042): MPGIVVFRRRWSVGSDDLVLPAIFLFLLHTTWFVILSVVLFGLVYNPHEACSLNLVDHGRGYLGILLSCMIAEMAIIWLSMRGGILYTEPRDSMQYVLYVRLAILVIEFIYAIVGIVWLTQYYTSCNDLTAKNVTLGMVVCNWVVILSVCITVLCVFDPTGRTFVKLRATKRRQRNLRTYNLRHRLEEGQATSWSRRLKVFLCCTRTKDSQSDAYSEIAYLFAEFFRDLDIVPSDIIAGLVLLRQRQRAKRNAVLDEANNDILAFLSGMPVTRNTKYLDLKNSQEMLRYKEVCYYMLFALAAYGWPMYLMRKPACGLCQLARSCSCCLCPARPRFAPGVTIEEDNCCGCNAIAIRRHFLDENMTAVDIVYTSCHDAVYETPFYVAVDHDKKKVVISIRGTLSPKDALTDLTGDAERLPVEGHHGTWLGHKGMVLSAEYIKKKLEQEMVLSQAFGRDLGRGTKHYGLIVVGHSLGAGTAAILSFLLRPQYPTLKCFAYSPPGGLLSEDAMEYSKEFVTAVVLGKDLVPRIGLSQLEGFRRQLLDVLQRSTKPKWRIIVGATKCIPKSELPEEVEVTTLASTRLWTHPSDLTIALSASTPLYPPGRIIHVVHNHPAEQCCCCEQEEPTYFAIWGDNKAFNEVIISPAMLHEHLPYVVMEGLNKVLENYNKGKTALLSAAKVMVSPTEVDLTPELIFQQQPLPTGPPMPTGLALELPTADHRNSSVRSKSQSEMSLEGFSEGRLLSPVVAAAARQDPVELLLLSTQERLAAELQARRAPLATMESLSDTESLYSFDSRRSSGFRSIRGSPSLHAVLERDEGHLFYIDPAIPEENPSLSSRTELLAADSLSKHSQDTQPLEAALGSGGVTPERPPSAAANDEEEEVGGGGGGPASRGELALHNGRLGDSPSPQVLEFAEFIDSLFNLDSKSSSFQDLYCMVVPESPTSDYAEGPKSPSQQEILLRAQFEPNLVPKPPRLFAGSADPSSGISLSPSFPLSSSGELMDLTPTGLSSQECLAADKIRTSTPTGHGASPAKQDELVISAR

DAGL-α [2] = target: T1, DAGL-α; assay: real-time, fluorescence-based
FAAH [3] = target: T2, FAAH (Mus musculus, UniProt O08914); assay: competitive ABPP with TAMRA-FP in mouse brain membrane proteome, FAAH labeling; type: binding
T2 sequence (O08914 1-579): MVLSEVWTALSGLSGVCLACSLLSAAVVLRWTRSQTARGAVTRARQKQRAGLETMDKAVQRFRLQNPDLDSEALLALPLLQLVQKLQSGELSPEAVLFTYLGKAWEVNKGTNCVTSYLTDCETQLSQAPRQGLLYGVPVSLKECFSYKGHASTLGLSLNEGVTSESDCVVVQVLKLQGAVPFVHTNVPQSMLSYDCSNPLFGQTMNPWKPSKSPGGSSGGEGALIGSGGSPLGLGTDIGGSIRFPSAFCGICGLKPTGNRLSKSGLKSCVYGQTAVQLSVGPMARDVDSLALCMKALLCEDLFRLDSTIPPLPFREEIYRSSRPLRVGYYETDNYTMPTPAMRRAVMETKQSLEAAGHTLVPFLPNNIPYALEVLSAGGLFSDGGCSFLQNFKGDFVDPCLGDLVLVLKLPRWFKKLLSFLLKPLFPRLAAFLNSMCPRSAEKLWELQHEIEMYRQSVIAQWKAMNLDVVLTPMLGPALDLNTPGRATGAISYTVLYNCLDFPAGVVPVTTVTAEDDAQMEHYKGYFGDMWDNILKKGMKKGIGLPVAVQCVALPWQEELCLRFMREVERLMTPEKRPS

serine hydrolases [4] = type: binding, mouse; settings: 10 μM, 30 min
FAAH [5] = target: T2, FAAH; assay: ABPP in Neuro2A proteome, FAAH; type: binding
recombinant human ABHD6 = target: T3, recombinant human ABHD6 (Homo sapiens, UniProt Q9BV23); assay: biochemical assay using recombinant human ABHD6
T3 sequence (Q9BV23 1-337): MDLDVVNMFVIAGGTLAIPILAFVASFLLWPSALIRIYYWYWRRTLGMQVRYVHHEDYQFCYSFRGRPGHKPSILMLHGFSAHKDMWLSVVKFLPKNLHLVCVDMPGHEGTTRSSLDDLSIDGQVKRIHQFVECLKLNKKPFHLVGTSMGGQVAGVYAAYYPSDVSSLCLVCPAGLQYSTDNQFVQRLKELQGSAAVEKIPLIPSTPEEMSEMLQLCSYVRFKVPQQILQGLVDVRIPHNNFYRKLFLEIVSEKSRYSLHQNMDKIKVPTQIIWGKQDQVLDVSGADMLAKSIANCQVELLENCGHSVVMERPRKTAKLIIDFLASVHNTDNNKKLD

[6] = test system: CA1 pyramidal neurons in hippocampal slices; assay: depolarization-induced suppression of inhibition; type: cell-based, mouse; settings: 10 μM
[7] = test system: endogenously expressed DAGL-β; assay: competitive ABPP with MB064 in mouse spleen membrane proteome; type: binding; settings: 10 μM, MB064 1.0 μM
cannabinoid CB1 receptor = cannabinoid CB1 receptor (Homo sapiens, UniProt P21554); assay: cannabinoid CB1 receptor radioligand displacement assay; type: binding
endogenous DAGL-β = target: T4, endogenous DAGL-β (Mus musculus, UniProt Q91WC9); assay: competitive ABPP with MB064 in Neuro2A proteome; type: binding; settings: Neuro2A proteome in vitro, n=3
T4 sequence (Q91WC9 1-669): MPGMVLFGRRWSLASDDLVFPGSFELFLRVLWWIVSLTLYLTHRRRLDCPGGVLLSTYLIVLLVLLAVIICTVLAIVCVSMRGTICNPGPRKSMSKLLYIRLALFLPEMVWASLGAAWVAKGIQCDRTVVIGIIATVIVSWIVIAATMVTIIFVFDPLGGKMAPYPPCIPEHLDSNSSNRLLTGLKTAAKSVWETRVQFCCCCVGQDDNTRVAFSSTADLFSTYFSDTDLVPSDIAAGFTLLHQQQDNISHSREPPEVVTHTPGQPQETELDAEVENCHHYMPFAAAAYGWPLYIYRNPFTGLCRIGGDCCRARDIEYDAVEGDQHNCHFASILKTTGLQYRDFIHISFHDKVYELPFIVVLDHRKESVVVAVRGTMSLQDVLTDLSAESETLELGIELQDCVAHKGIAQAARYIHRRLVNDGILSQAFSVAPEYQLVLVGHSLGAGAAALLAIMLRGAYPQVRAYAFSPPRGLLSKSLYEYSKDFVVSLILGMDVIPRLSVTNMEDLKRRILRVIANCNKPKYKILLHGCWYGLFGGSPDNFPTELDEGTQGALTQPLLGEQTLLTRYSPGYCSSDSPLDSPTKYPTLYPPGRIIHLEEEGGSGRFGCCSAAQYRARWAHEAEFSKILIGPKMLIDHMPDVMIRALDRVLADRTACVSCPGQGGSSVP

DAGL-α [8] = target: T1, DAGL-α; assay: colorimetric assay using para-nitrophenylbutyrate as a surrogate substrate; type: biochemical
DAGL-α [9] = target: T1, DAGL-α; assay: radiometric assay using 1-[14C]oleoyl-2-arachidonoyl-sn-glycerol as substrate; type: biochemical; settings: 1-[14C]oleoyl-2-arachidonoyl-sn-glycerol 20 μm; n=2
Neuro2A cells = assay: targeted lipidomics after in situ treatment of Neuro2A cells; type: cell-based, mouse; settings: in situ 1h, 37 °C, n=4
ABHD6 = assay: ABPP in Neuro2A proteome, ABHD6; type: binding, mouse
serine hydrolases [10] = type: binding, mouse
hDAGL-β [11] = target: T5, hDAGL-β (Homo sapiens, UniProt Q8NCG7); assay: competitive ABPP with MB064 on membranes of hDAGL-β transfected HEK293T cells; type: binding; settings: n=3
T5 sequence (Q8NCG7 1-672): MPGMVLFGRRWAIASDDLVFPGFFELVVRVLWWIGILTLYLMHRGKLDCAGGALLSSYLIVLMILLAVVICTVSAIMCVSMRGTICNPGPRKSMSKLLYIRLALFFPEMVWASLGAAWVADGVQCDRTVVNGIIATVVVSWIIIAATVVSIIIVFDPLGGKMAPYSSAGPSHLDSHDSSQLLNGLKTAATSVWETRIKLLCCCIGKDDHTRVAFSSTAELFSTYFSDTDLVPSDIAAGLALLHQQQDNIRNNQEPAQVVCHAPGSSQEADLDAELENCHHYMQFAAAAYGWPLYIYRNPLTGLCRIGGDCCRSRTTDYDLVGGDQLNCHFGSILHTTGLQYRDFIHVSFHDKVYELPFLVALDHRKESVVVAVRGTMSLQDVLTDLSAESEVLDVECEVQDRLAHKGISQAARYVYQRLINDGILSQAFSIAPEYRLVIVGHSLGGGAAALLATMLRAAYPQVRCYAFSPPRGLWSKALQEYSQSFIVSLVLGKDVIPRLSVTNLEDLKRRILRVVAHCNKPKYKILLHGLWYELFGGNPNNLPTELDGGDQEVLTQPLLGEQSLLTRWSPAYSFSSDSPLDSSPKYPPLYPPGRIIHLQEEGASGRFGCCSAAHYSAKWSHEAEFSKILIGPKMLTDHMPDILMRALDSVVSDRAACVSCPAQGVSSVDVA

hDAGL-β [12] = target: T5, hDAGL-β; assay: biochemical assay with para-nitrophenylbutyrate as a surrogate substrate; settings: n=4
recombinant human MAGL = target: T6, recombinant human MAGL (Homo sapiens, UniProt Q99685); assay: biochemical assay using recombinant human MAGL
T6 sequence (Q99685 1-303): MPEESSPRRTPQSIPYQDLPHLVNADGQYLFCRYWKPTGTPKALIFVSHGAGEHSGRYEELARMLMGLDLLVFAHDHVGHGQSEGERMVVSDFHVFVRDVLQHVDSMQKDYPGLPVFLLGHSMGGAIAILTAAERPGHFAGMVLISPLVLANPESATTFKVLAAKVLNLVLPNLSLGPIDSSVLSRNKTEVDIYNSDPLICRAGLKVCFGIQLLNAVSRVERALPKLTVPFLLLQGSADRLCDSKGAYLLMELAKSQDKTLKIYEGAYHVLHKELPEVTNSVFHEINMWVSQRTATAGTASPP

DAGL-α [13] = type: binding, mouse; settings: 10 μM
human PC3 cells = assay: lipid levels in human PC3 cells; type: cell-based

Chain of cannabinoid CB1 receptor (P21554 whole entry): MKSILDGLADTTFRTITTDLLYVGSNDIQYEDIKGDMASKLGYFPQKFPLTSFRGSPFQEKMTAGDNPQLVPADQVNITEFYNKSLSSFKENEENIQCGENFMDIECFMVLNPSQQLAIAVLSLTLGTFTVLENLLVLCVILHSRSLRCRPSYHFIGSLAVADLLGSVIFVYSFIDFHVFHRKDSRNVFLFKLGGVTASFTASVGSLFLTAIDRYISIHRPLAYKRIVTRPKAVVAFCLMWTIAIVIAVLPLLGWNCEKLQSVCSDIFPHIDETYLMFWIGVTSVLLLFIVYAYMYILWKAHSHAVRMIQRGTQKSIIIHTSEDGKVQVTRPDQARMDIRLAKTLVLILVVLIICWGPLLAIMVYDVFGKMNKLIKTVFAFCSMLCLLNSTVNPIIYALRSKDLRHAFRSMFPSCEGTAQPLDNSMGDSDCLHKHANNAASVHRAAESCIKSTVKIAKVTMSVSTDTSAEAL

Compound: O=C(N1CCCCC1Cc1ccccc1)n1cc(-c2ccc(-c3ccccc3)cc2)nn1 (centres unmarked) [KT-109, reference compound]
arachidonic acid levels (mouse liver): reduction
recovery of DAGL-α activity after size exclusion chromatography (DAGL-α [1]): No recovery

IC50 (DAGL-α [2]): 501 nM
IC50 (FAAH [3]): 15.8 nM
Compound: O=C(CCCCCc1ccccc1)c1nc2ncccc2o1 [LEI104]

Compound: Cc1ccc(-c2cnc3nc(C(=O)CCCCCc4ccccc4)oc3c2)cc1 [LEI105]
reduction of labeling of the detected serine hydrolases, except DAGL-α (serine hydrolases [4]): ≤ 20%
recovery of DAGL-α activity after size exclusion chromatography (DAGL-α [1]): reversibility
inhibition of FAAH (FAAH [5]): no inhibition
pKi on ABHD6 (recombinant human ABHD6): < 5
DSI in hippocampal slices (in words) [6]: reduced
amplitude of stimulus-evoked inhibitory post-synaptic currents (IPSC) ([6]; pre-incubation and continuous application): 271 ± 22 pA
DSI, reduction in IPSC amplitude averaged over the first 15 sec after induction ([6]; n=15, p<0.05 vs control): 18 ± 7%
inhibition of endogenous DAGL-β labeling/activity in spleen [7]: could be inhibited; also recorded: can block labeling
displacement of 3H-CP55940 from the CB1 receptor (cannabinoid CB1 receptor; 10 μM): did not displace
pKi on cannabinoid CB1 receptor (cannabinoid CB1 receptor; radioligand displacement): < 5
pIC50 of DAGL-β labeling (endogenous DAGL-β): 7.3 ± 0.07
fold more potent than LEI104 (DAGL-α [8]; para-nitrophenylbutyrate assay, vs LEI104): ~10 fold
pIC50 on human DAGL-α (DAGL-α [8]; para-nitrophenylbutyrate surrogate substrate, n=4): 8.5 ± 0.06
pIC50, radiometric assay (DAGL-α [9]): 6.6
cellular 2-AG levels (Neuro2A cells): concentration-dependent reduction; also recorded: dose dependently decreased
cellular anandamide (AEA) levels (Neuro2A cells): unaffected; also recorded: constant
inhibition of ABHD6 (ABHD6): no inhibition
inhibition of labeling of other bands (TAMRA-FP and MB064) (serine hydrolases [10]; 10 μM): did not inhibit labeling of any other band
fold increase compared to LEI104 (DAGL-α [2]; natural substrate assay): 40 fold
pIC50 of hDAGL-β labeling by MB064 (hDAGL-β [11]): 7.4 ± 0.07
pIC50 on human DAGL-β (hDAGL-β [12]): 8.1 ± 0.07
pKi on MAGL (recombinant human MAGL): < 5
block of FAAH labeling (FAAH [3]; up to a concentration of 10 μM, TAMRA-FP, n=3): did not block FAAH labeling
reduction of DAGL-α labeling (DAGL-α [13]): over 70%
2-AG levels (human PC3 cells): reduced
arachidonic acid levels (human PC3 cells): reduced
substrate levels of DAGL (DAG species) (human PC3 cells): no change

Compound: CCCCCCCCCCC[C@@H](C[C@@H]1OC(=O)[C@H]1CCCCCC)OC(=O)[C@@H](NC=O)[C@@H](C)CC [OMDM-188, reference compound]
number of serine hydrolases whose labeling was blocked (serine hydrolases [10]; 1 μM, including ABHD6 and ABHD12): at least 4
